For data set [1], the target named is type 4 phosphodiesterases (PDE4). Description: Inhibition of the phosphodiesterase (PDE4), enzymatic preparation from line U937. The format is biochemical. Conditions: PDE4 from cytosolic preparation of human cell line U937. As for the experimental part: The capacity of the formula (I) compounds of the invention to inhibit the cyclic nucleotide phosphodiesterases is evaluated by their Cl50 measurement (necessary concentration to inhibit 50% of enzymatic activity).
The type 4 phosphodiesterases are obtained from a cytosolic preparation extracted from the human origin cellular line U937 according to a method adapted from T. J. Torphy and al., 1992, J.Pharm.Exp. Ther. 263: 1195-1205
The other classes of phosphodiesterases are obtained after partial purification FPLC on Mono Q column. (anion exchange column) according to a method adapted from Lavan B. E., Lakey T., Houslay M. D. Biochemical Pharmacology, 1989, 38(22), 4123-4136., and from Silver P. J and al., 1988, Eur.J. Pharmacol. 150: 85-94, either, from human origin cellular lines for PDE 1 (monocytar line TPH1) and PDE5 (line MCF7 issued from an adenocarcinoma), or from dog aorta for PDE 3, or for the human PDE3A, from gene cloning in insect cells SF21 in baculovirus, according to a method adapted from Luckow, V. A. and al., 1991 in Recombinant DNA Technology&Applications.,eds. Prokop, Bajpai,R. K.&Ho,C. S., pp97-152. The enzymatic activity measurement of the different PDE classes, and in particular the PDE 4, is performed according to a method adapted from W. J. Thompson and al. 1979, Advances in Cyclic Nucleotide Research, Vol. 10: 69-92, ed. G. Brooker and al. Raven Press, NY.
For the Cl50 determination, the enzymatic activity is measured in the presence of inhibitor within concentration margins of 0.1 to 100 μM.
The following table illustrates the PDE4 inhibitory activity from enzymatic preparation obtained from the line U937.

Some results are limits rather than exact numbers.

For `O=c1c2cc(Cl)ccc2n2c(N3CCCCCC3)nnc2n1CC=Cc1ccccc1` [Compound 1, 1-(Azepan-1-yl)-7-chloro-4-(3-phenylallyl)-4H-[1,2,4]triazolo[4,3-a]quinazolin-5-one], the IC50 in data set [1] worked out at 54 nM.

`O=c1c2cc(Br)ccc2n2c(N3CCCCC3)nnc2n1CC=Cc1ccccc1` [Compound 76, 1-(piperidin-1-yl)-7-bromo-4-(3-phenylallyl)-4H-[1,2,4]triazolo[4,3-a]quinazolin-5-one] gave an IC50 in data set [1] of 70 nM.

The molecule `Cc1ccc2c(c1)c(=O)n(Cc1ccc(CC(=O)O)cc1)c1nnc(N(C)C)n21` [Compound 102, [4-(1-Dimethylamino-7-methyl-5-oxo-5H-[1,2,4]triazolo[4,3-a]quinazolin-4-ylmethyl)-phenyl]-acetic acid] showed a concentration for half-maximal inhibition (IC50) in data set [1] of 60 nM.

`O=c1c2cc(Br)ccc2n2c(N3CCCC3)nnc2n1Cc1ccccc1` [Compound 164, 4-benzyl-7-bromo-1-(pyrrolidin-1-yl)-4H-[1,2,4]triazolo[4,3-a]-quinazolin-5-one] came in with an IC50 in data set [1] of 90 nM.

The molecule `CNc1nnc2n(Cc3ccccc3)c(=O)c3cc(Br)ccc3n12` [Compound 188, 4-Benzyl-7-bromo-1-methylamino-4H-[1,2,4]triazolo[4,3-a]quinazolin-5-one] returned a melting point of 238 °C.

Molecule `Cc1ccc2c(c1)c(=O)n(Cc1ccccc1)c1nnc(N3CCCC3)n21` [Compound 191, 4-Benzyl-7-methyl-1-pyrrolidin-1-yl-4H-[1,2,4]triazolo[4,3-a]quinazolin-5-one] yielded a melting point of 189 °C.

For the molecule `Cc1ccc2c(c1)c(=O)n(Cc1ccccc1)c1nnc(N(C)C)n21` [Compound 192, 4-Benzyl-1-dimethylamino-7-methyl-4H-[1,2,4]triazolo[4,3-a]quinazolin-5-one], the melting point was determined as 186 °C.

The molecule `Cc1ccc2c(c1)c(=O)n(Cc1ccccc1)c1nnc(N3CCSCC3)n21` [Compound 193, 4-Benzyl-7-methyl-1-thiomorpholin-4-yl-4H-[1,2,4]triazolo[4,3-a]quinazolin-5-one] came in with a melting point of 265 °C.

Molecule `Cc1ccc2c(=O)n(Cc3ccccc3)c3nnc(N4CCCCCC4)n3c2c1` [Compound 194, 1-Azepan-1-yl-4-benzyl-8-methyl-4H-[1,2,4]triazolo[4,3-a]quinazolin-5-one] came in with a melting point of 202 °C.

For the molecule `COc1ccc2c(c1)c(=O)n(Cc1ccccc1)c1nnc(N3CCCCCC3)n21` [Compound 195, 1-Azepan-1-yl-4-benzyl-7-methoxy-4H-[1,2,4]triazolo[4,3-a]quinazolin-5-one], the melting point was found to be 153 °C.

In turn, `COc1ccc2c(c1)c(=O)n(Cc1ccccc1)c1nnc(N3CCCC3)n21` [Compound 196, 4-Benzyl-7-methoxy-1-pyrrolidin-1-yl-4H-[1,2,4]triazolo[4,3-a]quinazolin-5-one] displayed a melting point of 154 °C.

`N#Cc1ccc2c(c1)c(=O)n(Cc1ccccc1)c1nnc(N3CCCC3)n21` [Compound 197, 4-Benzyl-5-oxo-1-pyrrolidin-1-yl-4,5-dihydro-[1,2,4]triazolo[4,3-a]quinazoline-7-carbonitrile]: the melting point was found to be 219 °C.

As for `O=c1c2cc([N+](=O)[O-])ccc2n2c(N3CCCCCC3)nnc2n1Cc1ccccc1` [Compound 198, 1-Azepan-1-yl-4-benzyl-7-nitro-4H-[1,2,4]triazolo[4,3-a]quinazolin-5-one], the melting point came out at 206 °C.

`Cn1c(=O)c2ccccc2n2c(N3CCCCCC3)nnc12` [Compound 200, 1-(azepan-1-yl)-4-methyl-4H-[1,2,4]triazolo[4,3-a]quinazolin-5-one] yielded a melting point of 199 to 203 °C.

The molecule `O=c1c2ccccc2n2c(N3CCCCCC3)nnc2n1Cc1ccccc1` [Compound 201, 1-(azepan-1-yl)-4-benzyl-4H-[1,2,4]triazolo[4,3-a]quinazolin-5-one] yielded a melting point of 157 °C.

Turning to `Cn1c(=O)c2c(Cl)cccc2n2c(N3CCCCCC3)nnc12` [Compound 202, 1-(azepan-1-yl)-6-chloro-4-methyl-4H-[1,2,4]triazolo[4,3-a]-quinazolin-5-one], the melting point is greater than 275 °C.

`Cn1c(=O)c2cc(Cl)ccc2n2c(N3CCCCCC3)nnc12` [Compound 203, 1-(azepan-1-yl)-7-chloro-4-methyl-4H-[1,2,4]triazolo[4,3-a]-quinazolin-5-one] gave a melting point of 145 °C.

`CCn1c(=O)c2cc(Cl)ccc2n2c(N3CCCCCC3)nnc12` [Compound 204, 1-(azepan-1-yl)-7-chloro-4-ethyl-4H-[1,2,4]triazolo[4,3-a]-quinazolin-5-one] yielded a melting point of 98 to 100 °C.

The molecule `Cn1c(=O)c2cc(Cl)ccc2n2c(N3CCCC3)nnc12` [Compound 205, 7-chloro-4-methyl-1-(pyrrolidin-1-yl)-4H-[1,2,4]triazolo[4,3-a]-quinazolin-5-one] displayed a melting point of 203 to 205 °C.

`Cn1c(=O)c2cc(Cl)ccc2n2c(N3CCOCC3)nnc12` [Compound 206, 7-chloro-4-methyl-1-(morpholin-4-yl)-4H-[1,2,4]triazolo[4,3-a]-quinazolin-5-one] came in with a melting point of 232 °C.

`Cn1c(=O)c2cc(Cl)ccc2n2c(N3CCCCCCC3)nnc12` [Compound 207, 1-(azocan-1-yl)-7-chloro-4methyl-4H-[1,2,4]triazolo[4,3-a]-quinazolin-5-one] displayed a melting point of 123 to 125 °C.

On to `Cn1c(=O)c2cc(Cl)ccc2n2c(N3CCCc4ccccc43)nnc12` [Compound 208, 7-chloro-1-(3,4-dihydro-2H-quinolin-1-yl)-4-methyl-4H-[1,2,4]triazolo[4,3-a]quinazolin-5-one], for which the melting point was 204 °C.

Regarding `Cn1c(=O)c2cc(Cl)ccc2n2c(N3CCc4ccccc4C3)nnc12` [Compound 209, 7-chloro-1-(3,4-dihydro-1H-isoquinolin-2-yl)-4-methyl-4H-[1,2,4]triazolo[4,3-a]quinazolin-5-one], the melting point was 272 °C.

Take `Cn1c(=O)c2cc(Cl)ccc2n2c(N3CCC(Cc4ccccc4)CC3)nnc12` [Compound 210, 1-(4-benzylpiperidin-1-yl)-7chloro-4-methyl-4H-[1,2,4]triazolo[4,3-a]quinazolin-5-one]: the melting point stood at 180 °C.

Turning to `Cn1c(=O)c2cc(Cl)ccc2n2c(N3CC4(C)CC3CC(C)(C)C4)nnc12` (stereo not shown) [Compound 211, 7-chloro-4-methyl-1-(1,3,3-trimethyl-6-azabicyclo[3,2,1]oct-6yl)-4H-[1,2,4]triazolo[4,3-a]-quinazolin-5-one], the melting point amounted to 165 °C.

In turn, `Cn1c(=O)c2cc(F)ccc2n2c(N3CCCCCC3)nnc12` [Compound 212, 1-(azepan-1-yl)-7-fluoro-4-methyl-4H-[1,2,4]triazolo[4,3-a]-quinazolin-5-one] returned a melting point of 136 °C.

Regarding `Cn1c(=O)c2cc(I)ccc2n2c(N3CCCCCC3)nnc12` [Compound 213, 1-(azepan-1-yl)-7-iodo-4-methyl-4H-[1,2,4]triazolo[4,3-a]-quinazolin-5-one], the melting point was 206 °C.

Regarding `Nc1ccc(Cn2c(=O)c3cc(Br)ccc3n3c(N4CCCC4)nnc23)cc1` [Compound 218, 4-(4-Amino-benzyl)-7-bromo-1-pyrrolidin-1-yl-4H-[1,2,4]triazolo[4,3-a]quinazolin-5-one], in data set [1], the IC50 was found to be 48 nM.

Take `Nc1ccc2c(c1)c(=O)n(C/C=C/c1ccccc1)c1nnc(N3CCCC3)n21` [Compound 223, 7-Amino-4-((E)-3-phenyl-allyl)-1-pyrrolidin-1-yl-4H-[1,2,4]triazolo[4,3-a]quinazolin-5-one]: in data set [1], the IC50 is 12 nM.

Molecule `Nc1ccc2c(c1)c(=O)n(Cc1ccccc1)c1nnc(N3CCCC3)n21` [Compound 225, 7-Amino-4-benzyl-1-pyrrolidin-1-yl-4H-[1,2,4]triazolo[4,3-a]quinazolin-5-one] displayed a melting point of 230 °C.

For `N#Cc1ccc(Cn2c(=O)c3cc(N)ccc3n3c(N4CCCC4)nnc23)cc1` [Compound 226, 4-(7-Amino-5-oxo-1-pyrrolidin-1-yl-5H-[1,2,4]triazolo[4,3-a]quinazolin-4-ylmethyl)-benzonitrile], the melting point was 152 °C.

As for `CN(C)c1nnc2n(Cc3ccc(C#N)cc3)c(=O)c3cc(N)ccc3n12` [Compound 228, 4-(7-Amino-1-dimethylamino-5-oxo-5H-[1,2,4]triazolo[4,3-a]quinazolin-4-ylmethyl)-benzonitrile], the melting point amounted to 163 °C.

Consider `CN(C)c1nnc2n(Cc3ccc(CC(N)=O)cc3)c(=O)c3cc(Br)ccc3n12` [Compound 241, 2-[4-(7-Bromo-1-dimethylamino-5-oxo-5H-[1,2,4]triazolo[4,3-a]quinazolin-4-ylmethyl)-phenyl]-acetamide], for which the melting point is 268 °C.

Take `CN(C)c1nnc2n(Cc3ccc(C#N)cc3)c(=S)c3cc(Br)ccc3n12` [Compound 245, 4-(7-Bromo-1-dimethylamino-5-thioxo-5H-[1,2,4]triazolo[4,3-a]quinazolin-4-ylmethyl)-benzonitrile]: the melting point is 276 °C.

A word on the IC50: it is the midpoint of a concentration-inhibition curve. Lower therefore signals higher potency. As usually defined, the melting point is the temperature of the solid-liquid transition.

The record behind these values is patent US6828315B1, “1-Amino triazoloc4,3-a! quinazoline-5-ones and/or -5-thiones inhibiting phosphodiesterase IV” (Warner-Lambert LLC, priority 1999, dated 2004).
